From PubChem BioAssay (NCI)
Where “and” joins values, the source holds several entries; their conditions need not be identical. Equal values may be shown once.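 Assay format: 96-well plates, 48-hour exposure. GI50 is the concentration that inhibits growth by half. At the TGI there is no net growth.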

Tests used:
Assay in all cases: DTP human tumour cell line panel, 48 h
[1] = system: OVCAR-8 ovarian
[2] = system: MOLT-4 leukemia
[3] = system: K-562 leukemia
[4] = system: SF-539 CNS
[5] = system: HT29 colon
[6] = system: IGROV1 ovarian
[7] = system: SW-620 colon
[8] = system: A549 NSCLC
[9] = system: OVCAR-3 ovarian
[10] = system: SN12C renal

CCCCc1ccc2nc(NC(=O)OC)[nH]c2c1
GI50 [1]: 0.0837 µM | TGI [1]: > 52.9 µM | GI50 [2]: 0.0382 µM | TGI [2]: > 100 µM | GI50 [3]: 0.0337 µM | TGI [3]: > 100 µM | GI50 [4]: 0.0366 µM | TGI [4]: 0.294 µM | GI50 [5]: 0.0377 µM | GI50 [6]: 0.101 µM | TGI [6]: > 78.7 µM | GI50 [7]: 0.0325 µM | TGI [7]: > 60.5 µM | GI50 [8]: 0.0868 µM | TGI [8]: > 100 µM | GI50 [9]: 0.0228 µM | TGI [9]: 0.0502 µM | GI50 [10]: 0.0832 µM | TGI [10]: > 60.4 µM

O=C(Nc1ccc(Cl)cc1)NS(=O)(=O)c1ccc2c(c1)CCC2
GI50 [1]: 18.8 µg/mL | TGI [1]: > 100 µM and 44.2 µg/mL | GI50 [2]: 19.7 µg/mL | TGI [2]: 98.2 µM and 74.6 µg/mL | GI50 [3]: 11.3 µg/mL | TGI [3]: > 77.1 µM and 150 µg/mL | GI50 [4]: 17.6 µg/mL | TGI [4]: > 69.2 µM and 37 µg/mL | GI50 [5]: 19.7 µg/mL | TGI [5]: > 100 µM and 43.4 µg/mL | GI50 [6]: 4.37 µg/mL | TGI [6]: 94.3 µM and 18.7 µg/mL | GI50 [7]: 10.6 µg/mL | TGI [7]: > 100 µM and 33.6 µg/mL | GI50 [8]: 11.9 µg/mL | TGI [8]: 97.7 µM and 31.3 µg/mL | GI50 [9]: 5.61 µg/mL | TGI [9]: 73.8 µM and 21.4 µg/mL | GI50 [10]: 20.3 µg/mL | TGI [10]: > 100 µM and 43.1 µg/mL

O=C(CCCCCCc1nc2ccc(Br)cc2[nH]1)NO
GI50 [1]: 0.275 µM | TGI [1]: 16 µM | GI50 [2]: 0.342 µM | TGI [2]: > 100 µM | GI50 [3]: 0.357 µM | TGI [3]: > 100 µM | GI50 [4]: 0.97 µM | TGI [4]: 31.3 µM | GI50 [5]: 0.291 µM | GI50 [6]: 0.523 µM | TGI [6]: 2.45 µM | GI50 [7]: 0.266 µM | TGI [7]: 1.04 µM | GI50 [8]: 0.578 µM | TGI [8]: 11.3 µM | GI50 [9]: 0.313 µM | TGI [9]: 1.61 µM | GI50 [10]: 1.3 µM | TGI [10]: > 35.5 µM

N/C(=N\N=C\c1ccc2c(c1)OCO2)NO
TGI [1]: 40 µM | TGI [2]: 77.5 µM | TGI [3]: 50.7 µM | TGI [4]: 56.5 µM | TGI [5]: > 100 µM | TGI [6]: 88.3 µM | TGI [7]: > 100 µM | TGI [8]: > 100 µM | TGI [9]: 59.1 µM | TGI [10]: > 100 µM

CCCCN(CCCC)C(=Nc1ccccc1)N(CCCC)CCCC
TGI [1]: 24.9 µM | TGI [2]: 13.1 µM | TGI [3]: 10.4 µM | TGI [4]: 24.6 µM | TGI [5]: > 100 µM | TGI [6]: 23.1 µM | TGI [7]: 15.8 µM | TGI [8]: 27.9 µM | TGI [9]: 12.1 µM

COc1ccc(CCNc2nc3ccccc3c3[nH]c4ccccc4c23)cc1OC
GI50 [1]: 2.02 µM | TGI [1]: 5.54 µM | GI50 [2]: 3.23 µM | TGI [2]: 12.3 µM | GI50 [3]: 2.45 µM | TGI [3]: 10.2 µM | GI50 [4]: 2.17 µM | TGI [4]: 4.06 µM | GI50 [5]: 2.04 µM | TGI [5]: 6.32 µM | GI50 [7]: 2.34 µM | TGI [7]: 6.07 µM | GI50 [8]: 2.66 µM | TGI [8]: 8.24 µM | GI50 [9]: 1.98 µM | TGI [9]: 4.24 µM | GI50 [10]: 3.58 µM | TGI [10]: 16.5 µM

CCN(CC)CCn1c(=N)n(CC(O)c2ccc(Cl)c(Cl)c2)c2ccccc21 (centres undefined)
GI50 [1]: 12.1 µM | TGI [1]: 25.5 µM | GI50 [2]: 3.1 µM | TGI [2]: 13.1 µM | GI50 [3]: 2.33 µM | TGI [3]: 6.36 µM | GI50 [4]: 2.86 µM | TGI [4]: 10.1 µM | GI50 [5]: 3.3 µM | TGI [5]: 12.1 µM | GI50 [6]: 5.87 µM | TGI [6]: 20.6 µM | GI50 [7]: 11 µM | TGI [7]: 24.8 µM | GI50 [9]: 11.5 µM | TGI [9]: 24 µM | GI50 [10]: 8.79 µM | TGI [10]: 24.2 µM

COC1CC(OC2OC(CO)C(O)C(O)C2O)/C(=C\C#N)C(O)C1OC (centres undefined)
TGI [1]: > 100 µM | TGI [2]: > 100 µM | TGI [4]: > 100 µM | TGI [5]: > 100 µM | TGI [6]: > 100 µM | TGI [7]: > 100 µM | TGI [8]: > 100 µM | TGI [9]: > 100 µM | TGI [10]: > 100 µM

NC(=O)C/C=C/CC(N)=O
TGI [1]: > 100 µM | TGI [4]: > 100 µM | TGI [5]: > 100 µM | TGI [6]: > 100 µM | TGI [7]: > 100 µM | TGI [8]: > 100 µM | TGI [9]: > 100 µM | TGI [10]: > 100 µM

CC(C)c1ccc2c(c1)CCC1C(C)(C)[C@@H](O)CC[C@]21C (some centres undefined)
TGI [1]: > 100 µM | TGI [2]: 89.9 µM | TGI [3]: > 100 µM | TGI [4]: 65.1 µM | TGI [5]: 30 µM | TGI [6]: > 100 µM | TGI [8]: > 100 µM | TGI [9]: > 100 µM | TGI [10]: 40.2 µM

O=C1CCC/C=C\C[C@H]2C=C(Cl)C(=O)/C2=C/C[C@H](CCCCC(F)(F)F)OC(=O)CCC/C=C\C[C@H]2C=C(Cl)C(=O)/C2=C/C[C@H](CCCCC(F)(F)F)O1
GI50 [1]: 0.231 µM | TGI [1]: 1.09 µM | GI50 [2]: 0.24 µM | TGI [2]: 1.6 µM | GI50 [3]: 0.184 µM | TGI [3]: 7.5 µM | GI50 [4]: 0.257 µM | TGI [4]: 1.52 µM | GI50 [5]: 0.241 µM | TGI [5]: 0.807 µM | GI50 [6]: 0.231 µM | TGI [6]: 0.791 µM | GI50 [7]: 0.237 µM | TGI [7]: 0.659 µM | GI50 [8]: 0.429 µM | TGI [8]: 2.61 µM | GI50 [9]: 0.19 µM | TGI [9]: 0.485 µM

C=CCCc1cc(OC)ccc1CN(C)C(C)(C)CO
TGI [1]: > 100 µM | TGI [3]: > 100 µM | TGI [4]: > 100 µM | TGI [5]: > 100 µM | TGI [6]: > 100 µM | TGI [7]: > 100 µM | TGI [8]: > 100 µM | TGI [9]: > 100 µM | TGI [10]: > 100 µM

O=C(Cn1ccnc1[N+](=O)[O-])NCCO
TGI [1]: > 100 µM | TGI [3]: > 100 µM | TGI [4]: > 100 µM | TGI [5]: > 100 µM | TGI [6]: > 100 µM | TGI [7]: > 100 µM | TGI [8]: > 100 µM | TGI [9]: > 100 µM | TGI [10]: > 100 µM

CCS[C@H]1NC(=O)C1[C@H](C)O[Si](C)(C)C(C)(C)C (some centres undefined)
TGI [1]: > 100 µM | TGI [3]: > 100 µM | TGI [4]: > 100 µM | TGI [5]: > 100 µM | TGI [6]: > 100 µM | TGI [7]: > 100 µM | TGI [8]: > 100 µM | TGI [9]: > 100 µM | TGI [10]: > 100 µM
